Patent US20200121605A1, “METHODS AND COMPOSITIONS FOR LOCALIZED INTRADUCTAL DRUG DELIVERY TO THE BREAST AND REGIONAL LYMPH NODES” (South Dakota Board of Regents, priority 2018, published 2020)
Values belong to the compound of their own block, whether it stands above or below them.

What was measured:
[1] = set-up: species or system rats; settings: rat, in vivo
Method: (§1) For In vivo studies, the levels of 4-hydroxytamoxifen and endoxifen were measured using LC-MS.
(§2) The tissues were mixed with TRIS HCl buffer (1 ml/mg) and homogenized at 6000 rpm for 3 minutes under ice. For lymph nodes, sonication (45% amplitude in pulse mode 1 sec on and 1 sec off for 2 minutes under ice) was used to homogenize the tissue. From this, 200 μl of tissue homogenate was mixed with 800 μl of acetonitrile to precipitate proteins (1:4 v/v). This was then vortexed for 1-2 minutes followed by sonication for 3 minutes. The plasma was then centrifuged at 10,000 rpm at 4° C. for 10 minutes. The supernatant was collected and evaporated to dryness under gentle stream of Argon. The residue was then reconstituted with 100 μl of Ammonium Formate, pH 3.5: Acetonitrile (7:3 v/v). This was vortexed for 1 minute followed by sonication for 2 minutes. The reconstituted mixture was centrifuged at 10,000 rpm for 10 minutes at 4° C. The supernatant was collected and 15 μl was injected into LC-MS to determine drug levels.

[2] = rat, in vivo
Method: as §1, §2

[3] = Breast (mammary gland) concentration of tamoxifen and 4-hydroxytamoxifen after intraductal injection; type: in vivo
Method: (§3) For In vivo studies, the levels of Tamoxifen and two major metabolites 4-hydroxytamoxifen (4HT) and endoxifen (EDX) were measured using LC-MS. (Liquid chromatography-Mass spectroscopy)
(§4) The mammary gland and all the other vital organs (liver, spleen, kidney, lungs, heart, and uterus) were weighed and washed with PBS to remove blood. The tissues were mixed with TRIS HCl buffer (1 ml/mg) and homogenized at 6000 rpm for 3 minutes under ice. For lymph nodes, sonication (45% amplitude in pulse mode 1 sec on and 1 sec off for 2 minutes under ice) was used for homogenization. From this, 200 μl of tissue homogenate was mixed with 800 μl of acetonitrile (1:4 v/v) for protein precipitation. This was vortexed for 1-2 minutes followed by sonication for 3 minutes. The homogenate was centrifuged at 10,000 rpm at 4° C. for 10 minutes. The supernatant was collected and evaporated to dryness under gentle stream of Argon. The residue was reconstituted with 100 μl of ammonium formate (pH 3.5): acetonitrile (7:3 v/v). This was vortexed for 1 minute followed by sonication for 2 minutes. The reconstituted mixture was centrifuged at 10,000 rpm for 10 minutes at 4° C. The supernatant was gently removed and 15 μl was injected into LC-MS for quantification.

[4] = Plasma levels of tamoxifen and metabolites after intraductal injection of tamoxifen formulations (LC-MS); type: in vivo
Method: as §3
For determining drug levels in plasma, 100 μl of plasma was mixed with 400 μl of acetonitrile to precipitate proteins (1:4 v/v). This was then vortexed for 1-2 minutes followed by sonication for 3 minutes. The plasma was then centrifuged at 10,000 rpm at 4° C. for 10 minutes. The supernatant was collected and evaporated to dryness under gentle stream of Argon. The residue was then reconstituted with 100 μl of ammonium formate, (pH 3.5): acetonitrile (7:3 v/v). This was vortexed for 1 minute followed by sonication for 2 minutes. The reconstituted mixture was centrifuged at 10,000 rpm for 10 minutes at 4° C. The supernatant was collected and 15 μl was injected into LC-MS to determine drug levels.

[5] = Organ distribution of tamoxifen PLGA formulations; type: in vivo; settings: end of the treatment
Method: as §3, §4

[6] = Intraductal retention of Cy5.5 labelled PLGA formulations, whole body imaging; type: in vivo, Female SD rats
Method: Female SD rats were anesthetized using isoflurane and the hair around the nipple region was removed using hair removing cream. The keratin plug from the inguinal mammary gland (5th or 6th nipple from the head) was removed gently holding the nipple using tweezers and wiping with 70% alcohol.
For microspheres and nanoparticles, around 0.5 to 1.5 mg particles was dispersed in PBS containing 0.5% w/v Tween 80 and vortexed for 30-60 seconds. For In situ implants, 50-100 μl of gel containing an equivalent amount of Cy5.5 was used. After dilation of the nipple orifice, 50-100 μl of the formulation was injected intraductally into the inguinal mammary glands using 27-31 G needle under a surgical microscope.
The animals were imaged using Bruker in Vivo Xtreme II optical imaging system at predetermined time points (0 to 96 hours) to study the distribution of the carrier system in the breast. Following instrument settings were used: Excitation/Emission: 690/750 nm; Bin: 1×1 pixels; Exposure time: 20 seconds, f-stop: 1.2, FOV: 19. Fluorescence intensities were plotted against time by choosing a constant ROI around the injected mammary gland and subtracting the fluorescence intensity from the contralateral mammary gland.

[7] = Imaging of regional (axillary) lymph nodes after intraductal injection; type: in vivo, female Sprague Dawley rats
Method: Intraductal injection was performed following the method described in the previous section. Regional lymph nodes (Axillary lymph node) were identified and dissected at 2 hours, 24 hours and 48 hours after intraductal injection. The lymph nodes were then imaged using whole body animal imaging system to determine the localization of formulation in the lymph nodes.

[8] = breast (mammary gland), tamoxifen in breast
[9] = intraductal retention, Cy 5.5 fluorescence intensity profile, 0 to 96 hours

- 4 hydroxy tamoxifen in the tissues [1]: undetectable
- systemic exposure of endoxifen in all the tissues [1]: higher systemic exposure
- retention in the mammary gland, in words [2]: very low levels
Compound: 4-hydroxytamoxifen [Free 4-hydroxy tamoxifen]

Compound: CC/C(=C(\c1ccccc1)c1ccc(OCCN(C)C)cc1)c1ccccc1 [Free TMX, tamoxifen]
- not retained in the mammary glands after [3]: 3 days
- retained in the mammary gland for only [3]: 72 h
- AUC [3, 8]: 125000 ± 3690 ng·h/mL
- Cmax [3, 8]: 4370 ± 67.7 ng/mL
- MRT [3, 8]: 26.5 ± 4.3 h
- Tmax [3, 8]: 12 h
- half-life [3, 8]: 14.87 ± 0.04 h
- ke ([3]; tamoxifen in breast): 0.020 ± 0.0005
- duration of detectable plasma tamoxifen [4]: 3 days
- AUC ([4]; Tamoxifen in plasma): 116 ± 43.3 ng·h/mL
- AUMC ([4]; Tamoxifen in plasma): 4546.37 ± 466.103 ng · hr^2/ml
- Cmax ([4]; Tamoxifen in plasma): 8.9 ± 1.55 ng/mL
- MRT ([4]; Tamoxifen in plasma): 47.7 ± 3.15 h
- Tmax ([4]; Tamoxifen in plasma): 0.3 h
- half-life ([4]; Tamoxifen in plasma): 19.5 ± 4.24 h
- ke ([4]; Tamoxifen in plasma): 0.015 ± 0.002 h⁻¹
- uterine exposure of tamoxifen and metabolites [5]: resulted in uterine exposure

- no fluorescence signals recorded after ([6]; breast ducts, non-invasive imaging): 4 h
- k [6, 9]: 0.40 ± 0.03 h⁻¹
- t1/2 (retention half-life) [6, 9]: 1.70 ± 0.16 h
- localization (fluorescence) in the axillary lymph nodes up to [7]: ≤ 1 h
Compound: Cy 5.5
